According to paper PMC6934184, “Selective DNA-PKcs inhibition extends the therapeutic index of localized radiotherapy and chemotherapy” (The Journal of Clinical Investigation, 2019):

Test system: remaining 398 kinases
Assay: SelectScreen Broad Assay Panel, summary
Format: biochemical
Settings: 1 µM
Method: The in vitro kinase selectivity of NU5455 was determined using the SelectScreen Broad Assay Panel (Thermo Fisher Scientific) involving activity and binding assays (Supplemental Table 1). […] Class IA PI3Ks were measured using the p85α subunit.
Kinase [ATP] % Assay Kinase [ATP] % Assay Kinase [ATP] % Assay Kinase [ATP] % Assay
DNA-PK Km app 98.3 Z LATS2 n/a 4.7 L KIT D820E n/a 1.3 L GSK3B (GSK3 beta) Km app -2.5 Z
PIK3C3 (hVPS34) Km app 85.9 A PRKCZ (PKC zeta) Km app 4.7 Z GRK1 n/a 1.3 L BMPR2 n/a -2.5 L
PIK3C2B (PI3K-C2 beta) 10 28.9 A FGFR1 Km app 4.7 Z BRSK2 n/a 1.2 L CDC42 BPB (MRCKB) Km app -2.5 Z
SNF1LK2 Km app 26.6 Z MINK1 Km app 4.6 Z NUAK1 (ARK5) Km app 1.2 A AMPK (A2/B2/G2) n/a -2.6 L
HCK Km app 18.0 Z CSF1R (FMS) Km app 4.3 Z CDK9/cyclin K n/a 1.0 L PRKG1 Km app -2.7 Z
NEK2 Km app 17.8 Z CSNK1G3 (CK1 gamma 3) Km app 4.2 Z NUAK2 n/a 1.0 L KIT T670E n/a -2.8 L
ALK Km app 17.3 Z STK32C (YANK3) n/a 4.2 L CDK2/cyclin O n/a 0.9 L ERBB4 (HER4) Km app -2.8 Z
FGFR3 K650M n/a 16.5 L STK22D (TSSK1) Km app 4.2 Z CAMKK2 (CaMKK beta) n/a 0.9 L PLK4 n/a -2.8 L
SIK3 n/a 16.1 L TAOK3 (JIK) n/a 4.2 L FGFR3 Km app 0.9 Z GRK7 Km app -3.0 Z
LYN A Km app 15.2 Z RPS6KA4 (MSK2) Km app 4.2 Z ULK2 n/a 0.9 L MAPKAPK2 Km app -3.1 Z
BMPR1B (ALK6) n/a 14.5 L PTK2B (FAK2) Km app 4.2 Z KIT D816V n/a 0.9 L FGFR4 Km app -3.1 Z
INSRR (IRR) Km app 14.1 Z CLK2 Km app 4.1 Z CAMK1 (CaMK1) 10 0.8 A CASK n/a -3.1 L […]

CN(C(=O)CN1CCOCC1)c1ccc2sc3c(-c4cccc5c(=O)cc(N6CC7CCC(C6)O7)oc45)cccc3c2c1 [NU5455]
inhibition in the majority of the remaining 398 kinases: less than 10%
